One test addresses T1, Ac-Ubc9K65 (Homo sapiens, UniProt P63279).
T1 construct: made in house; host or cells: E. coli BL21 (DE3) with pAcKRS-3 and pCDF PylT-1-Ubc9 (amber codon at K65), fed acetyl-lysine
The test is described as follows: ITC binding of sumoylation-motif peptides to K65-acetylated Ubc9. Particulars: 25 °C, pH 8.0, 20 mM potassium phosphate, 100 mM NaCl, 1:1 binding stoichiometry assumed, triplicate measurements. On the procedure: (§1) ITC binding experiments were used to quantify the effect of Ubc9 acetylation on NDSM substrate binding (Fig. 2A). […] The dissociation constants for Elk1 and CBP were 70 and 57 μM, respectively (Fig. 2C and D), which were roughly similar to the dissociation constant of 56 μM obtained for the more acidic Calpain2 (Fig. 2E). Contrary to our expectations, RanGAP1 bound more strongly than the NDSMs with a dissociation constant of 13 μM. […] Similarly, not every acidic residue from the NDSM contributed equally to Ubc9 binding and even positions ×1 and ×2 could be potentially deciding factors. We exploited the long acidic stretch of Calpain2 in additional studies described below to explain this phenomenon. […] The observed switching from exothermic versus endothermic binding of the NDSM versus SM containing peptides is surprising. We speculate that the long negatively charged tail of NDSM may interact with Ubc9 in such a way that it free up more Ubc9-bound water molecules, resulting in an overall entropy increase. More work need to be done to fully understand its implication in binding mechanism.
(§2) Figure 2 Effect of K65 acetylation on Ubc9 affinity for substrates. (A) Summary of the thermodynamic parameters obtained from triplicate isothermal titration calorimetry (ITC) measurements. Representative ITC thermograms for Ubc9 binding to the RanGAP1 (B), Elk1 (C), CBP (D), and Calpain2 (E) peptides. The heat absorbed (or released) post-injection, after correcting for the heat of dilution, is shown in lower panels. […]
(§3) The ITC experiments were repeated twice at 25 °C by a controlled 2 μl addition of peptide to 200 μl of WT or Ac-Ubc9K65 in pH 8.0 buffer containing 20 mM potassium phosphate and 100 mM NaCl using an iTC200 calorimeter (GE Healthcare, Parsippany, NJ, USA). The first data point of each experiment was excluded from analysis and the baseline-corrected data were analyzed using Origin 7.0 software assuming 1:1 binding stoichiometry.

The next test deals with T2, Ubc9 (WT) (Homo sapiens, UniProt P63279).
T2 construct: made in house; host or cells: E. coli (stated as BL21 (DE3) for the acetylated variant)
T2 sequence (P63279 whole entry): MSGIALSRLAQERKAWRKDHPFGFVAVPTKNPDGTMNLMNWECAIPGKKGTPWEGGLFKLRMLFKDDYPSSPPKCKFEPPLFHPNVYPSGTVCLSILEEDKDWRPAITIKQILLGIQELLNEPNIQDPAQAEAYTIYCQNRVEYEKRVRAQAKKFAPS
The test is described as follows: ITC binding of sumoylation-motif peptides to WT Ubc9. Particulars: 25 °C, pH 8.0, 20 mM potassium phosphate, 100 mM NaCl, 1:1 binding stoichiometry assumed, triplicate measurements. Here is the method:
as §1, §2, §3

SMILES strings stand for the structures. Peptide text beside a SMILES is read from it.

T1 sequence (P63279 2-158): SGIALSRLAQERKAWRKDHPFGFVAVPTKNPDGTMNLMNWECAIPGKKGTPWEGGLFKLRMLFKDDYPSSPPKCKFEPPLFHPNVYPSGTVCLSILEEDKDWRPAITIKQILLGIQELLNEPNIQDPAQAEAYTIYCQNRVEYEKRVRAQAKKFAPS

Consider `CC(C)[C@H](NC(=O)[C@H](CCC(=O)O)NC(=O)[C@@H](NC(=O)[C@H](CCCCN)NC(=O)[C@@H](NC(=O)[C@H](CCC(=O)O)NC(=O)[C@@H]1CCCN1C(=O)[C@H](CCCCN)NC(=O)[C@H](CCCCN)NC(=O)[C@H](CCC(=O)O)NC(=O)[C@@H](N)CC(=O)O)C(C)C)C(C)C)C(=O)N[C@@H](CCCCN)C(=O)N[C@@H](CCC(=O)O)C(=O)N[C@@H](CCC(=O)O)C(=O)N[C@@H](CCC(=O)O)C(=O)N[C@@H](CCC(=O)O)C(=O)N[C@@H](CO)C(=O)N[C@@H](CO)C(=O)N[C@@H](CO)C(=O)N[C@@H](CC(N)=O)C(=O)O` [CBP] (H-DEKKPEVKVEVKEEEESSSN-OH), for which the Kd came out at 105 µM on Ac-Ubc9K65 and 57.4 ± 2.8 µM on Ubc9 (WT).
Regarding `CC[C@H](C)[C@H](NC(=O)[C@H](C)NC(=O)[C@H](CCCCN)NC(=O)[C@@H](NC(=O)[C@H](CCCCN)NC(=O)[C@H](CC(=O)O)NC(=O)[C@H](CCC(=O)O)NC(=O)[C@H](CO)NC(=O)[C@H](CCCCN)NC(=O)[C@H](CC(C)C)NC(=O)[C@H](CC(C)C)NC(=O)CNC(=O)[C@H](CCSC)NC(=O)[C@H](Cc1c[nH]cn1)NC(=O)[C@@H](NC(=O)[C@@H](N)CC(C)C)C(C)C)C(C)C)C(=O)N[C@@H](C)C(=O)N[C@@H](CC(N)=O)C(=O)N[C@@H](CC(C)C)C(=O)N[C@@H](Cc1ccc(O)cc1)C(=O)O` [RanGAP1, reference compound] (H-LVHMGLLKSEDKVKAIANLY-OH), the Kd came out at 13.5 ± 2.2 µM on Ac-Ubc9K65 and 13.5 ± 0.9 µM at Ubc9 (WT).
Consider `CC(C)C[C@H](NC(=O)[C@H](CCC(=O)O)NC(=O)[C@H](CCC(=O)O)NC(=O)[C@H](CCCCN)NC(=O)[C@@H]1CCCN1C(=O)CNC(=O)[C@H](CCC(=O)O)NC(=O)[C@@H](NC(=O)[C@H](CCCCN)NC(=O)[C@@H](NC(=O)[C@H](CCC(=O)O)NC(=O)[C@@H]1CCCN1C(=O)[C@@H]1CCCN1C(=O)[C@H](CC(C)C)NC(=O)[C@H](C)NC(=O)[C@@H](N)CCCNC(=N)N)C(C)C)C(C)C)C(=O)N[C@@H](CCC(=O)O)C(=O)N[C@H](C(=O)N[C@@H](C)C(=O)NCC(=O)O)C(C)C` [Elk1] (H-RALPPEVKVEGPKEELEVAG-OH), for which the dissociation constant Kd was 103 µM at Ac-Ubc9K65 and 70.2 ± 1.3 µM on Ubc9 (WT).
Regarding `CC[C@H](C)[C@H](NC(=O)[C@H](CC(C)C)NC(=O)[C@H](Cc1ccc(O)cc1)NC(=O)[C@H](CCC(N)=O)NC(=O)[C@@H]1CCCN1)C(=O)N[C@@H](CCCCN)C(=O)N[C@@H](CC(C)C)C(=O)N[C@@H](CCC(=O)O)C(=O)N[C@@H](CCC(=O)O)C(=O)N[C@@H](CCC(=O)O)C(=O)N[C@@H](CC(=O)O)C(=O)N[C@@H](CCC(=O)O)C(=O)N[C@@H](CC(=O)O)C(=O)N[C@@H](CCC(=O)O)C(=O)N[C@@H](CCC(=O)O)C(=O)N[C@@H](CC(=O)O)C(=O)NCC(=O)N[C@@H](CCC(=O)O)C(=O)N[C@@H](CO)C(=O)NCC(=O)N[C@@H](CS)C(=O)N[C@H](C(=O)O)[C@@H](C)O` [Calpain2] (H-PQYLIKLEEEDEDEEDGESGCT-OH), the figures for the Kd on Ac-Ubc9K65 and on Ubc9 (WT) were 80.3 ± 2.7 µM and 55.8 ± 3.3 µM, respectively.

Values taken from publication PMC5727262, “Molecular mechanism of K65 acetylation-induced attenuation of Ubc9 and the NDSM interaction” (Scientific Reports, 2017).
